Source: ChEMBL document CHEMBL1909046, “DrugMatrix in vitro pharmacology data”
pIC50: −log10 of the molar value.

Legend:
[1] = DRUGMATRIX: GABAA, Chloride Channel, TBOB radioligand binding (ligand: [3H] TBOB); type: cell membranes, Rattus norvegicus, Wistar, Cerebral cortex, Membrane; conditions: Not Active = under 50% inhibition at 10 µM
[2] = DRUGMATRIX: Glutamate, NMDA, Agonism radioligand binding (ligand: [3H] CGP-39653); type: cell membranes, Rattus norvegicus, Wistar, Cerebral cortex, Membrane; conditions: Not Active = under 50% inhibition at 10 µM
[3] = molecular target: T1, Muscarinic acetylcholine receptor M5 (Homo sapiens, UniProt P08912); type: cell membranes, CHO-K1, Membrane; conditions: cho-k1; further: in other assays of this panel Not Active means under 50% inhibition at 10 µM
T1 sequence (P08912 whole entry): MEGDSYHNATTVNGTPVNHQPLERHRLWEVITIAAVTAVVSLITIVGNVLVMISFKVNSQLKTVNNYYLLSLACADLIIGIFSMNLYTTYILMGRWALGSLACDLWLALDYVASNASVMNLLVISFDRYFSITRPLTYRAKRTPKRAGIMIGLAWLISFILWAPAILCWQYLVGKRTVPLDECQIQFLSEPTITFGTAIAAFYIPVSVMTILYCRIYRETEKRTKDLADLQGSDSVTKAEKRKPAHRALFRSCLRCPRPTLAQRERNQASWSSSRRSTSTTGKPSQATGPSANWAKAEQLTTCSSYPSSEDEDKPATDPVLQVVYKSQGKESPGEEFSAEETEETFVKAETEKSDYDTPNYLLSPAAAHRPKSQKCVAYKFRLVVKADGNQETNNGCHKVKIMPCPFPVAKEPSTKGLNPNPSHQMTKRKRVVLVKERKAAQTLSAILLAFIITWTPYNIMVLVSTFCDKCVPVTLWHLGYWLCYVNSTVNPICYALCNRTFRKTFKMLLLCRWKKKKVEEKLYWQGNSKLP

[4] = DRUGMATRIX: Interleukin IL-1 radioligand binding (ligand: [125I] interleukin 1beta); type: cell membranes, Membrane; conditions: nih3t3; Not Active = under 50% inhibition at 10 µM
D(4) dopamine receptor = molecular target: T2, D(4) dopamine receptor (Homo sapiens, UniProt P21917); assay: DRUGMATRIX: Dopamine D4.2 radioligand binding (ligand: [3H] Spiperone); type: cell membranes, CHO-K1, Membrane; conditions: cho-k1; Not Active = under 50% inhibition at 10 µM
T2 sequence (P21917 whole entry): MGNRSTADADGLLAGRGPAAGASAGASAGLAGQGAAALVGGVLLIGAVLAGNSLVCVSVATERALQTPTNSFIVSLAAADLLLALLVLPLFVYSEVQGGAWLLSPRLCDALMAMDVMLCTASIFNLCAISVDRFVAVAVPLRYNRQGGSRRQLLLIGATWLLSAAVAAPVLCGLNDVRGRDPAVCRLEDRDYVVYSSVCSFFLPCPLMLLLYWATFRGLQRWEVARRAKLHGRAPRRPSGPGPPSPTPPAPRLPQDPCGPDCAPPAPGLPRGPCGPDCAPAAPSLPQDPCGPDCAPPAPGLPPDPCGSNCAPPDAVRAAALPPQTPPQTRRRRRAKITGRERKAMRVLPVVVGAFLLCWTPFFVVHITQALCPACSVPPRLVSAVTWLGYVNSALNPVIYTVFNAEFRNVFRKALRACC

[5] = molecular target: T3, Angiotensin-converting enzyme (Oryctolagus cuniculus, UniProt P12822); assay: biochemical; type: tissue-based, Lung;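 further: enzymatic inhibition of angiotensin-converting enzyme measured with FAPGG as the substrate; in other assays of this panel Not Active means under 50% inhibition at 10 µM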
T3 sequence (P12822 whole entry): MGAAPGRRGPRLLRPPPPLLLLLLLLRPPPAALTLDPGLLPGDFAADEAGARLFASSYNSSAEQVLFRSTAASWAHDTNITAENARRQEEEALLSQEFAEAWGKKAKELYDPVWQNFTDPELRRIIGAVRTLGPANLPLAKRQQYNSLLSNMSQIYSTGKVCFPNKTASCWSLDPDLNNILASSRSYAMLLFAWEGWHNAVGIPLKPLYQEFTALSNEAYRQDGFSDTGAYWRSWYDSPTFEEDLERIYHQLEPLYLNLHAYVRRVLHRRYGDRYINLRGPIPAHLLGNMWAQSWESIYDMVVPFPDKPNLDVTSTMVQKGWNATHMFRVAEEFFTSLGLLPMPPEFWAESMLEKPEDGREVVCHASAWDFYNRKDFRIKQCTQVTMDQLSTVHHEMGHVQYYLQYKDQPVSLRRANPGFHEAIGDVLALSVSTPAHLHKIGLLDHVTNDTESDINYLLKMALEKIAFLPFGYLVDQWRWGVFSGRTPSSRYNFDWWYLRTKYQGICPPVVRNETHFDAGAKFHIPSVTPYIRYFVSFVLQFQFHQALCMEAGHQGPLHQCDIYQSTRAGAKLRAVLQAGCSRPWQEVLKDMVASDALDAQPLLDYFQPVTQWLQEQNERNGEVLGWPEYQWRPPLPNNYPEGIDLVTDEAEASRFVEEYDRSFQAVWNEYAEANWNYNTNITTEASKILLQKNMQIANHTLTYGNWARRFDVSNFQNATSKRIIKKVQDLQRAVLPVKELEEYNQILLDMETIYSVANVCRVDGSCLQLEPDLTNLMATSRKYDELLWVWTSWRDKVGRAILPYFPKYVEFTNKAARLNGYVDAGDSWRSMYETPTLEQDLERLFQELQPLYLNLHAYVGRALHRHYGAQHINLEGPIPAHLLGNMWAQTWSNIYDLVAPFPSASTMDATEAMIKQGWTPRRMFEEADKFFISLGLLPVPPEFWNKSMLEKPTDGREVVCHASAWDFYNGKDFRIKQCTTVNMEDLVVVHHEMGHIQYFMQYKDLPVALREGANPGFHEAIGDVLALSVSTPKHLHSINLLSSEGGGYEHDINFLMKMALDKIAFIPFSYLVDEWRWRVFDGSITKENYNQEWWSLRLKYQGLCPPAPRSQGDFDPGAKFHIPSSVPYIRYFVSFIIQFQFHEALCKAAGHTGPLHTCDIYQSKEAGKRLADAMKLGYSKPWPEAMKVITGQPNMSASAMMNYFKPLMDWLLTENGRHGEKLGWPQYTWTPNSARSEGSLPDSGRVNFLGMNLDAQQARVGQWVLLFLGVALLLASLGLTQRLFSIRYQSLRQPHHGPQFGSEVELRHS

[6] = molecular target: Epidermal growth factor receptor (Homo sapiens, UniProt P00533); assay: DRUGMATRIX: Protein Tyrosine Kinase, EGF Receptor enzyme inhibition (substrate: Poly(Glu:Tyr)); type: cell-based, Insect cells; conditions: insect cells; Not Active = under 50% inhibition at 10 µM
Epidermal growth factor receptor, sequence (P00533 whole entry): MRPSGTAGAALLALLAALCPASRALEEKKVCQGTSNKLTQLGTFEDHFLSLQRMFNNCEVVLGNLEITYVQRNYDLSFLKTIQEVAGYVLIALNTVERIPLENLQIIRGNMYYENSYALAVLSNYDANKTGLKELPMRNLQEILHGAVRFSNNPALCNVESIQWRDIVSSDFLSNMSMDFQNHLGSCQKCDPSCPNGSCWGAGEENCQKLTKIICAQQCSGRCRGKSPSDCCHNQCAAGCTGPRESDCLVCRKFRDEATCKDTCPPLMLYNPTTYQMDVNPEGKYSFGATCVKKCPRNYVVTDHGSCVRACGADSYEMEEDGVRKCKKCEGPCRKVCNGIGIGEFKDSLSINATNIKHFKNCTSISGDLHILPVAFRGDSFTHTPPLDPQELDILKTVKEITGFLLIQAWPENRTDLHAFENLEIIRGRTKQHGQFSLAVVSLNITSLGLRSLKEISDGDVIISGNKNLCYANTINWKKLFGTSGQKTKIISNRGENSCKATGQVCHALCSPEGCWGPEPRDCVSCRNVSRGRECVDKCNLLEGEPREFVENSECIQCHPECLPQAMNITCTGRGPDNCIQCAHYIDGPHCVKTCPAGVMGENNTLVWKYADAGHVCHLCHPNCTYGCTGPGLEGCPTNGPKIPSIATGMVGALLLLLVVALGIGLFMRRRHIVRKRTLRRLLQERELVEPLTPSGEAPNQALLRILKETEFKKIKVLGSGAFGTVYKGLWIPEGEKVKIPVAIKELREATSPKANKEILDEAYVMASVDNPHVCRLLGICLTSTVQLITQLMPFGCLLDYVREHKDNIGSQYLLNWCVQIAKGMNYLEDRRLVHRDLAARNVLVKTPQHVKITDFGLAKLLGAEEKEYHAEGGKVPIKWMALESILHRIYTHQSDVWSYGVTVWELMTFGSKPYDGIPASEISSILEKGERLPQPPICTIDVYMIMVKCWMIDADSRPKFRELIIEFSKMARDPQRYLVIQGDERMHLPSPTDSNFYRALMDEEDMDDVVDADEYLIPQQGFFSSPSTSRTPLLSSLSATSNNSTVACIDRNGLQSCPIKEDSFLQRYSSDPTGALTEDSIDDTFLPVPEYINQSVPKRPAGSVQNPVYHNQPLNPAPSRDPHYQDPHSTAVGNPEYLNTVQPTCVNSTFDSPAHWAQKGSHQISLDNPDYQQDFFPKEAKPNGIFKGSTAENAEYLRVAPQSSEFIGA

Melanocortin receptor 5 = Melanocortin receptor 5 (Homo sapiens, UniProt P33032); type: cell membranes, HEK293, Membrane; conditions: hek293; further: in other assays of this panel Not Active means under 50% inhibition at 10 µM
Melanocortin receptor 5, sequence (P33032 whole entry): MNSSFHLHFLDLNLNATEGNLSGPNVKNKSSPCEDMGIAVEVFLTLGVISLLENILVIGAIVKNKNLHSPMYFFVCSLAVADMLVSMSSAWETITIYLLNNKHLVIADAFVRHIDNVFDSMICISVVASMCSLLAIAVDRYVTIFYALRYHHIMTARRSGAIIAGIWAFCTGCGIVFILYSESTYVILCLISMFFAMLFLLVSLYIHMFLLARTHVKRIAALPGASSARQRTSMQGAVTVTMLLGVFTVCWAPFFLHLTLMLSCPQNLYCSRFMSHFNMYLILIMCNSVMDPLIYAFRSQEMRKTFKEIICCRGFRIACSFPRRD

SMILES	IC50 [1]	Ki [1]	IC50 [2]	Ki [2]	IC50 [3]	Ki [3]	IC50 [4]	Ki [4]	IC50 (D(4) dopamine receptor)	Ki (D(4) dopamine receptor)	IC50 [5]	Ki [5]	IC50 [6]	Ki [6]	IC50 (Melanocortin receptor 5)	Ki (Melanocortin receptor 5)	pIC50 ([5]; read-out: IC50)
O=[N+]([O-])c1cc([As](=O)(O)O)ccc1O [ROXARSONE]	Not Active	Not Active	Not Active	Not Active	Not Active	Not Active	Not Active	Not Active	Not Active	Not Active	Not Active	Not Active	Not Active	Not Active	Not Active	Not Active	
NCCCC[C@H](N[C@@H](CCc1ccccc1)C(=O)O)C(=O)N1CCC[C@H]1C(=O)O [LISINOPRIL ANHYDROUS]	Not Active	Not Active	Not Active	Not Active	Not Active		Not Active	Not Active	Not Active				Not Active		Not Active		8.22
CC(=O)S[C@@H]1CC2=CC(=O)CC[C@]2(C)[C@H]2CC[C@@]3(C)[C@@H](CC[C@@]34CCC(=O)O4)[C@H]12 [SPIRONOLACTONE]	Not Active	Not Active	Not Active	Not Active	Not Active		Not Active	Not Active	Not Active		Not Active		Not Active		Not Active		
CC(C)(C)NCC(O)c1ccc(O)c(CO)c1 (configuration not stated) [ALBUTEROL]	Not Active	Not Active	Not Active	Not Active	Not Active		Not Active	Not Active	Not Active		Not Active		Not Active		Not Active		
COC(=O)[C@@H]1[C@H]2C[C@H]3c4[nH]c5ccccc5c4CCN3C[C@@H]2CC[C@@H]1O [YOHIMBINE]	Not Active	Not Active	Not Active	Not Active	Not Active		Not Active	Not Active	Not Active		Not Active		Not Active		Not Active		
CO[C@@H]1[C@@H](O[C@@H]2O[C@H](C)[C@@H](O[C@H]3C[C@@](C)(O)[C@@H](OC(=O)CC(C)C)[C@H](C)O3)[C@H](N(C)C)[C@H]2O)[C@@H](CC=O)C[C@@H](C)[C@@H](O)/C=C/C=C/C[C@@H](C)OC(=O)C[C@H]1O [KITASAMYCIN]	Not Active	Not Active	Not Active	Not Active	Not Active		Not Active	Not Active	Not Active		Not Active		Not Active		Not Active		
Clc1ccc(C(c2ccccc2Cl)C(Cl)Cl)cc1 (configuration not stated) [MITOTANE]	Not Active	Not Active	Not Active	Not Active	Not Active		Not Active	Not Active	Not Active		Not Active		Not Active		Not Active		
C=CC[C@@H]1/C=C(\C)C[C@H](C)C[C@H](OC)[C@H]2O[C@@](O)(C(=O)C(=O)N3CCCC[C@H]3C(=O)O[C@H](/C(C)=C/[C@@H]3CC[C@@H](O)[C@H](OC)C3)[C@H](C)[C@@H](O)CC1=O)[C@H](C)C[C@@H]2OC [TACROLIMUS ANHYDROUS]	Not Active	Not Active	Not Active	Not Active	Not Active		Not Active	Not Active	Not Active		Not Active		Not Active		Not Active		
COc1ccc(C(CN(C)C)C2(O)CCCCC2)cc1 (configuration not stated) [VENLAFAXINE]	Not Active	Not Active	Not Active	Not Active	Not Active		Not Active	Not Active	Not Active		Not Active		Not Active		Not Active		
CC(C)(C)NCC(O)c1cc(O)cc(O)c1 (configuration not stated) [TERBUTALINE]	Not Active	Not Active	Not Active	Not Active	Not Active		Not Active	Not Active	Not Active		Not Active		Not Active		Not Active		
Cc1cc(NS(=O)(=O)c2ccc(N)cc2)no1 [SULFAMETHOXAZOLE]	Not Active	Not Active	Not Active	Not Active	Not Active		Not Active	Not Active	Not Active		Not Active		Not Active		Not Active		
COC(=O)c1ccc(O)cc1 [METHYLPARABEN]	Not Active	Not Active	Not Active	Not Active	Not Active		Not Active	Not Active	Not Active		Not Active		Not Active		Not Active		
